Assay results published in US20060159631A1, “Compositions and methods for preventing dental stain” (SMITHKLINE BEECHAM CORPORATION, priority 2003, published 2006).

Assay: Coffee stain challenge on saliva pellicle-treated HAP discs, rated by visual inspection
Conditions: subjective index of 1 to 10 (1 representing greatest stain), coffee 24 hours, None = 2.0
Description: In a series of experiments, HAP discs were first treated with saliva to generate an artificial pellicle. […] Following a second rinse, the active-treated discs were immersed in a concentrated solution of coffee for a period of 24 hours in order to simulate a dietary stain challenge. After rinsing to remove excess coffee solution, the discs were dried and rated for stain by visual inspection. Using a subjective index of 1 to 10 (1 representing greatest stain), stain intensity is tabluated below.

Compound	Stain Intensity (10% (w/w) active)	Stain Intensity (2% (w/w) active)	Stain Intensity (5% (w/w) active)
O=P(O)(O)OP(=O)(O)OP(=O)(O)O [STP]	5.5		
pegulated lauryl phosphate ether [DLP-10]		3.5	4.0
